Laboratory results taken from US20050175550A1, “Compositions for oral use” (priority 2000, published 2005).

How the values were obtained:
Type in all cases: cell-based
[1] = system: Moraxella (Branhamella) catarrhalis ATCC25240; assay: MIC by agar plate dilution method on standard strains (Example 3)
Method: (§1) Drug solutions at a concentration 10 times as high as the maximum applicable concentration were prepared as original solutions of test drugs given in Table 2 (as to solvents used for this purpose, reference should be made also to Table 2). Serial two-fold dilution series of the original solutions were prepared at desired stages, and 1 ml each of the diluted drug solutions was added to 9 ml of media given in Table 3 to prepare drug plates. […] • 1) Bacterial solutions stocked at −80° C. were inoculated on agar media (as to media used, reference should be made to Table 3), and then incubated at 37° C. overnight. When desired, subculturing was conducted once more on the same agar media (by overnight incubation at 37° C.). • 2) Colonies growing on the agar media were sampled by a platinum loop, suspended in liquid media (reference should be made to Table 3) and statically incubated at 37° C. for 18 hours (preculturing). • 3) Preculturing was continued up to McFarland 0.5 (McFarland 0.5=about 10^8 CFU/ml), and then the culture broths were diluted with Muellar Hinton Broth to make 10^6 CFU/ml. 5 μl each of the diluted solutions were inoculated on the above-mentioned drug plates by an inoculator Microplanter. […] Thus, bacterial solutions at about 10^8 CFU/ml can be easily prepared by use of McFarland 0.5. Bacterial solutions at such a turbidity are commercially available, but can be easily prepared.

[2] = system: Haemophilus influenzae ATCC49247; assay: as above
Method: as §1

[3] = system: Streptococcus pneumoniae ATCC6306; assay: as above
Method: as §1

[4] = system: Pseudomonas aeruginosa ATCC27853; assay: as above
Method: as §1

[5] = system: Streptococcus pyogenes ATCC12353; assay: as above
Method: as §1

[6] = system: Moraxella (Branhamella) catarrhalis ATCC25238; assay: as above
Method: as §1

[7] = system: Haemophilus influenzae ATCC49766; assay: as above
Method: as §1

[8] = system: Streptococcus pneumoniae ATCC6302; assay: as above
Method: as §1

[9] = system: Haemophilus influenzae ATCC33533; assay: as above
Method: as §1

[10] = system: Streptococcus pyogenes ATCC12344; assay: as above
Method: as §1

[11] = system: Streptococcus pneumoniae ATCC6303; assay: as above
Method: as §1

[12] = system: Streptococcus pneumoniae ATCC49619; assay: as above
Method: as §1

[13] = system: Enterococcus faecium ATCC19434; assay: as above
Method: as §1

[14] = system: Streptococcus pneumoniae ATCC6301; assay: as above
Method: as §1

[15] = system: Haemophilus influenzae ATCC33391; assay: as above
Method: as §1

[16] = system: Serratia marcescens ATCC13880; assay: as above
Method: as §1

[17] = system: Bacillus subtilis ATCC6633; assay: as above
Method: as §1

[18] = system: Escherichia coli ATCC25922; assay: as above
Method: as §1

[19] = system: Klebsiella pneumoniae ATCC700603; assay: as above
Method: as §1

[20] = system: Streptococcus agalactiae ATCC13813; assay: as above
Method: as §1

[21] = system: Streptococcus pyogenes ATCC12385; assay: as above
Method: as §1

[22] = system: Enterococcus faecalis ATCC29247; assay: as above
Method: as §1

[23] = system: Micrococcus luteus ATCC9341; assay: as above
Method: as §1

[24] = system: Escherichia coli ATCC35218; assay: as above
Method: as §1

[25] = system: Staphylococcus aureus ATCC6538P; assay: as above
Method: as §1

[26] = system: Moraxella (Branhamella) catarrhalis ATCC43617; assay: as above
Method: as §1

[27] = system: Staphylococcus aureus ATCC29247; assay: as above
Method: as §1

Streptococcus mutans Xc = assay: Minimum growth-inhibiting concentration on agar media (Example 2); details: S. mutans Xc; Brain Heart Infusion, 5% CO2
Method: (§2) 3 ml of GAM broth (Nissui Medical) containing 5 μg/ml of hemin and 1 μg/ml of menadione was separately inoculated with one platinum loop each of subcultures of causative bacteria of periodontal disease, strains Porphyromonas gingivalis W83, W50, ATCC49417 and ATCC33277, strain Actinobacillus actinomycetemcomitans Y4, and strains Fusobacterium nucleatum ATCC10953 and ATCC25586, followed by incubation at 37° C. under anaerobic conditions (10% CO2, 10% H2 and 80% N2) overnight. Then, the resulting cultures were diluted to 10^−8, 10^−6, 10^−4 and 10^−3 to make inoculating bacterial solutions, respectively.
(§3) Agar media containing 400, 200, 100, 50, 25, 10 and 5 μg/ml of TFM, respectively, were prepared and streaked, about 2 cm long, with a platinum loop each of the above-prepared inoculating bacterial solutions, followed by incubation under the same anaerobic conditions as above at 37° C. for 48-72 hours to evaluate growth of the bacteria.
(§4) Streptococcus sobrinus MT8246, Streptococcus sanuis ST160, Streptococcus mutans Xc and Streptococcus salivarius HHT were likewise incubated in Brain Heart Infusion (Difco) in the same manner as above except that the incubation was conducted in the presence of 5% CO2 to evaluate the growth.

[28] = system: Streptococcus sobrinus MT8246; assay: as above; details: S. sobrinus MT8246; Brain Heart Infusion, 5% CO2
Method: as §2, §3, §4

[29] = system: Streptococcus salivarius HHT; assay: as above; details: S. salivarius HHT; Brain Heart Infusion, 5% CO2
Method: as §2, §3, §4

N[C@@H](CCSC(F)(F)F)C(=O)O [TFM, Trifluoromethionine]
>400 µg/mL: MIC [3] | MIC [4] | MIC [5] | MIC [8] | MIC [10] | MIC [11] | MIC [12] | MIC [13] | MIC [14] | MIC [16] | MIC [17] | MIC [18] | MIC [19] | MIC [20] | MIC [21] | MIC [22] | MIC [23] | MIC [24] | MIC [25] | MIC [27] | Minimum growth-inhibiting concentration (Streptococcus mutans Xc) | Minimum growth-inhibiting concentration [28] | Minimum growth-inhibiting concentration [29]
25 µg/mL: MIC [1] | MIC [7]
50 µg/mL: MIC [2] | MIC [15]
100 µg/mL: MIC [6] | MIC [9] | MIC [26]
